In patent US6979447B2, “Immunomodulation and effect on cell processes relating to serotonin family receptors” (Philadelphia Health and Education Corporation, priority 2001, dated 2005):

How the values were obtained:
murine lymphocytes = experiment: Murine mixed lymphocyte reaction (BALB/c vs. C57BL6); type: cell-based, mouse; details: BALB/c vs. C57BL6, FIG. 10
Protocol: MLRs were performed essentially as described in Current Protocols in Immunology (1999, Section 3.12.6-3.12.7). That is, the primary spleen cells obtained from C57/B6J mice were used as stimulators. They were purified as described in Current Protocols in Immunology (1999, Section 3.1.5), and were irradiated (35 Gy) at the Hahnemann Hospital (Philadelphia, Pa.) blood bank facility. Primary spleen cells obtained from BALB/c/BYJ were depleted from the adherent cells using a nylon wool column, and were used as responders.
The various inhibitors were pre-plated onto 96 well, U-bottom plates and all experimental conditions were assayed at least in triplicate. 100,000 C57/B6 cells in RPMI medium, supplemented with 10% FBS, were plated into each well. 200,000 of BALB/c/BYJ cells were plated over the stimulator cells, to a final volume of 200 μl/well. Background controls received either no BALB/c cells, or no C57/B6 cells. One micro Ci of tritiated thymidine was added to each well after 4 days, and the plates were harvested 12 hours later.

RPMI-8226 cells = experiment: Hematoxylin-eosin / bis-benzamide staining of RPMI-8226 cytospins; type: cell-based, human
Protocol: 2.0×10^5 RPMI-8226 cells were cultured, in 6-well culture plates, in the presence of the indicated drug concentrations, in a total of 5 mL RPMI-1640 supplemented with 10% FBS. Each well was harvested in its entirety and divided into two identical samples for cytospins.
1.0×10^5 RPMI-8226 cells from each treatment group were loaded into Cyto-funnels and centrifuged at 500 rpm for 4 minutes with medium acceleration. Slides were then fixed through graded methanol in PBS (100%, 5 minutes; 80%, 5 minutes; 50%, 5 minutes), washed for 5 minutes in PBS and stored in PBS at 4° C. until stained.
Cytospun slides were stained with Hematoxylin and Eosin, followed by the nuclear stain, bis-benzamide, rinsed and mounted according to standard staining protocols. Slides were visualized under both brightfield and fluorescent light to generate matched images of the same slide field (see, e.g., FIGS. 28 and 29).

human lymphocytes [1] = experiment: Human mitogenic (ConA) stimulation, 3H-thymidine incorporation; type: cell-based; details: for effect on activation / proliferative response: ConA 5 μg/ml, FIGS. 7A, 8A, 9A
Protocol: Blood from healthy volunteers was drawn using venipuncture, using Vacutainer collection sets and heparinized collection vials. The blood was diluted 1:1 using HBSS to a total volume of 30 ml in 50 ml conical tubes (Fisher Scientific, Co., Pittsburgh, Pa.). […] Cells from the buffy coats were collected and the residual Histopaque was washed away using repeated centrifugations in HBSS. After washes, cells were resuspended at 5 million cells per ml in RPMI, supplemented with 2% FBS. To remove adherent cells, the suspension was plated onto a 6 well flat-bottom plate (Corning Costar), 3 ml/well, and incubated for 2 hours at 37° C., 5% CO2. Non-adherent cells were harvested after this incubation, were counted and resuspended in RPMI supplemented with 10% human serum (Sigma).
All drugs were pre-plated before the cell suspension was added onto each well of a 96-well round-bottom plate. All experimental conditions were assayed in at least triplicate. Cells suspended in RPMI supplemented with 10% human serum were plated at 100,000 cells per well to a final volume of 200 μl. […] Control samples received no ConA stimulation. The plates were incubated at 37° C. and 5% CO2. One microCurie of tritiated thymidine was added to each well after 60 hours, and the plates were harvested 12 hours later.

[2] = system: RPMI 8226 multiple myeloma cells; experiment: RPMI 8226 cell proliferation / viability (trypan blue, MTT, 3H-thymidine); type: cell-based, human; details: low dose-titration, FIGS. 23, 24 and 25
Protocol: The human plasmacytoma (multiple myeloma) cell line, RPMI 8226 (American Type Culture Collection, Manassas, Va.), was cultured in RPMI 1640 supplemented with 10 mM HEPES, 1 mM sodium pyruvate, 4.5 g/L glucose, 1.5 g/L bicarbonate and 20% FBS (non-heat inactivated).
Cell proliferation was assayed by three methods—Trypan Blue Exclusion was used to quantify the number of viable cells in culture; 3-(4,5-dimethylthiazol-2-yl)-2,5-diphenyl tetrazolium bromide (MTT) reduction was used to assay mitochondrial activity (and thus cell viability); and ^3H-Thymidine uptake was employed to assay for active DNA synthesis.
The following 5-HT receptor modulating compounds were tested for their effects on RPMI 8226 cells in vitro cultured at the described densities and across the indicated concentration ranges.

human lymphocytes [3] = experiment: Human mixed lymphocyte reaction (allogeneic stimulation); type: cell-based; details: allogeneic stimulation, harvested 120 hours, FIGS. 7B, 8B, 9B
From the text: Blood from two healthy, non-related, donors was taken as described above. Peripheral blood mononuclear cells were isolated as described previously elsewhere. The adherent cells were separated from the suspension cells as described previously for both donors. Suspension cells from both donors (donors A and B) were used as responders. The remaining adherent cells from each of the donors were used as stimulators against a different donor (suspension A against adherent B and adherent A against suspension B). The stimulator cells were irradiated at 35 Gy. Drugs were pre-plated onto 96 well, U-bottom plates in triplicate. 200,000 “stimulator” cells in RPMI supplemented with 10% human serum were then plated in each well. 200,000 “responder” cells in the same medium were then plated over stimulators to a final volume of 200 μl/well. Background controls received either no stimulator cells, or no responder cells. The plates were incubated at 37° C. and 5% CO2. 1 μCi of tritiated thymidine was added to each well after 4.5 days, and the plates were harvested 12 hours later.

T cells = experiment: Macrophage media-conditioning study, T cell proliferation in conditioned media; type: cell-based, mouse; details: added to conditioned media, FIG. 1
From the text: Femur and tibia bones were harvested from the hind limbs of 6-8 week old C57/B6J mice (Jackson Laboratories, Bar Harbor, Me.). The distal ends of the bones were removed, exposing the marrow plugs. Using a 22 gauge needle (Becton-Dickinson, Lincoln Park, N.J.), the marrow cavities were flushed with RPMI medium supplemented 2% FBS. The cell suspension was then passed through a nylon mesh to remove stromal cells. Red blood cells were lysed using ACK (ammonium chloride potassium lysis buffer; 0.15 M NH4Cl, 10 mM KHCO3, 0.1 mM EDTA) buffer as described in Current Protocols in Immunology (Section 3.1.5).
Cells were resuspended at 10^7 cells/ml in RPMI medium, containing 10% FBS, 500 units/ml of murine M-CSF, and 3 ml/well of cell suspension were plated onto a 6 well flat-bottom plate. […] Cells were grown for 4 days. Spleens of 6-8 week old BALB/c/BYJ were harvested, and single cell suspension was made. Red blood cells were removed as described above. Adherent cells were removed by 1.5 hour incubation on a nylon wool column, and suspension cells were collected. The BALB/c cells were then plated over the C57/B6 cells (see supra), at 1.2×10^6 cells/well, in 0.65 ml (bringing brought the final volume of each well to 1.3 ml). The cells were grown for 2.5 days. When appropriate, fluoxetine or BCH were added at the beginning of this incubation. The medium from the mixed cell cultures was harvested, centrifuged at 1200 RPM to remove cells, and filtered using a 0.22 microns syringe filter (Corning). This filtered medium was used to support another round of cell proliferation.

**Q.** For 5-methyl hydroxytryptamine, which “effect on outcome of murine MLR” value (murine lymphocytes) is on record?
**A.** slight enhancement

**Q.** With `CNc1cc(NS(=O)(=O)c2ccc(N)cc2)nc(NC)n1` [Ro 04-679] as the compound, how does the “effect on outcome of murine MLR” value (murine lymphocytes) read?
**A.** no effects on the outcome of the assay

**Q.** Which results are given for `Cc1cc2c(cc1Cl)N(C(=O)Nc1ccc(Oc3cccnc3C)nc1)CC2` [SB 242084]?
**A.** chromatin / nuclear morphology (RPMI-8226 cells; 50 μM, 9 hour treatment, FIGS. 28, 29): condensed and fragmented chromatin; induction of programmed cell death (RPMI-8226 cells; FIGS. 28 and 29): induced programmed cell death comparable to that induced by the topoisomerase I inhibitor, camptothecin; inhibitory profile when dosed at time=0 or time=48 hours (human lymphocytes [1]; ConA 1 μg/ml, harvested 72 hours, FIG. 12): retained the complete inhibitory profile; effect on activation / proliferative response (human lymphocytes [1]; harvested 72 hours): inhibit the activation response at pharmacologically relevant concentrations; effect on growth of RPMI-8226 cells [2]: strong inhibition of growth; effect on activation / proliferative response (human lymphocytes [3]): inhibit the activation response at pharmacologically relevant concentrations

**Q.** What does the source list for `CSc1ccc2c(c1)C(N1CCN(C)CC1)Cc1ccccc1S2` (centres unmarked) [methiothepin]?
**A.** effect on activation / proliferative response (human lymphocytes [1]; harvested 72 hours): inhibit the activation response at pharmacologically relevant concentrations; effect on growth of RPMI-8226 cells [2]: strong inhibition of growth; effect on activation / proliferative response (human lymphocytes [3]): inhibit the activation response at pharmacologically relevant concentrations

**Q.** Which “relief of phenelzine-induced inhibition” value (human lymphocytes [1]; ConA 1 μg/ml, added to phenelzine-inhibited cells, 100 μM each, FIG. 6) does the source give for `N[C@@H](Cc1c[nH]c2ccccc12)C(=O)O` [tryptophan] here?
**A.** had very little effect

**Q.** And the “effect on proliferative response” value (human lymphocytes [1]; ConA 1 μg/ml, reagent 100 μM, FIG. 6)?
**A.** enhanced the proliferative response

**Q.** What about the “effect on proliferative response” value (human lymphocytes [1]; highest ConA dose, 10 μg/ml, harvest 72 hours, FIG. 5C) of the same compound?
**A.** no enhancement at the highest level

**Q.** What about the “effect on stimulation of ConA-stimulated human PBLs” value (human lymphocytes [1]; reagents at 400 μM, time course, FIG. 4) of the same compound?
**A.** enhanced the maximal stimulation of the cells

**Q.** And the “effect on proliferative response” value (human lymphocytes [1]; weakest signal strength, 0.1 μg/ml ConA, harvest 72 hours, FIG. 5A)?
**A.** augments the proliferative response

**Q.** And the “restoration of T cell proliferation in conditioned media” value (T cells)?
**A.** had no effect
